What was measured:
[1] = CellTiter-Blue cell viability assay, cell toxicity in PBMC from healthy volunteers; assay type: cell-based; settings: human, 50 000 cells/well, cultured 24, 48 and 72 h (time of the IC50 not stated), % cytotoxicity vs 0.2% DMSO
Description: (§1) Method for Measurement of Cell Toxicity
(§2) The CellTiter-Blue® Cell Viability Assay provides a homogeneous, fluorometric method for estimating the number of viable cells present in multi-well plates. The assay uses the indicator dye resazurin to measure the metabolic capacity of cells. Viable cells retain the ability to reduce resazurin into resorufin, which is highly fluorescent.
(§3) Stock solutions (10 or 100 mM in DMSO) of compounds were serially diluted 1:2 in 11 concentrations and 25 nL/well (100 mM stock) or 50 nL/well (10 mM stock) were acoustically dispensed in assay plates with an EDC acoustic dispenser. Final starting concentration in the assay was 20 μM (0.2% DMSO) or 100 μM (0.1% DMSO) for test compounds.
(§4) Peripheral blood mononuclear cells (PBMC) from CLL patients or healthy volunteers were seeded in assay plates (384-well black/clear, Greiner #781091) pre-dispensed with compounds, 25 μL/well, and cultured for 24, 48 and 72 h. The cell concentration was 50 000 cells/well for PBMC from CLL patients or healthy volunteers. After 24, 48 and 72 h culture, Celltiter Blue reagent was added (5 μL/well) and the plates were incubated for 2 h. The plates were read in an Envision fluorescence reader (PerkinElmer) with Ex544 nm/Em590 nm. Results were calculated as % cytotoxicity compared to background (cells treated with 0.2% DMSO).
(§5) Thus, IC50 values for cell toxicity in PBMC from CLL patients as well as healthy volunteers for some compounds of the invention are shown in Table 3.

PBMC from CLL patients = experiment: CellTiter-Blue cell viability assay, cell toxicity in PBMC from CLL patients; assay type: cell-based; settings: Homo sapiens, 50 000 cells/well, cultured 24, 48 and 72 h (time of the IC50 not stated), % cytotoxicity vs 0.2% DMSO
Description: as §1, §2, §3, §4, §5

| Structure (SMILES) | IC50 [1] | IC50 (PBMC from CLL patients) |
| --- | --- | --- |
| CN(C)C(=O)COc1ccc(-c2nc3c(N[C@H]4CCN(Cc5ccccc5)C4)c(Cl)cnc3[nH]2)cc1 [Example 64, 2-[4-(7-{[(3S)-1-benzylpyrrolidin-3-yl]amino}-6-chloro-3H-imidazo[4,5-b]pyridin-2-yl)phenoxy]-N,N-dimethylacetamide] | 13900 nM | 890 nM |
| CNC(=O)COc1ccc(-c2nc3c(NC4CCN(C)CC4)c(Cl)cnc3[nH]2)cc1OC [Example 168, 2-(4-{6-chloro-7-[(1-methylpiperidin-4-yl)amino]-3H-imidazo[4,5-b]pyridin-2-yl}-2-methoxyphenoxy)-N-methylacetamide] | > 20000 nM | 250 nM |
